This is an account of results in publication PMC5218480 (PLoS ONE, 2017).

In this assay the test system is MV-4-11 cells. Nature of the assay: Gene expression microarray analysis (Affymetrix PrimeView) and GSEA. Format: cell-based, human. Details: RFU PODN (11730768_x_at) / Fold change /veh PODN (11730768_x_at) / RFU LINC00158 (11744669_a_at) / Fold change /veh LINC00158 (11744669_a_at) / RFU DUSP10 (11751237_a_at) / Fold change /veh DUSP10 (11751237_a_at) / RFU ID3 (11757404_x_at) / Fold change /veh ID3 (11757404_x_at) / RFU PLEKHG5 (11737974_s_at) / Fold change /veh PLEKHG5 (11737974_s_at) / RFU LRRC4B (11730491_at) / Fold change /veh LRRC4B (11730491_at) / RFU GIMAP4 (11747438_a_at) / Fold change /veh GIMAP4 (11747438_a_at) / RFU KRT8 (11758183_x_at) / Fold change /veh KRT8 (11758183_x_at) / RFU CNN1 (11734310_a_at) / Fold change /veh CNN1 (11734310_a_at) / RFU VPS37D (11726825_at) / Fold change /veh VPS37D (11726825_at) / RFU C10orf10 (11716522_x_at) / Fold change /veh C10orf10 (11716522_x_at) / RFU KIR2DL2 /// KIR2DL4 /// KIR2DL5A /// KIR2DL5B /// KIR2DS1 /// KIR2DS2 /// KIR2DS3 /// KIR2DS4 /// KIR3DL3 /// KIR3DL3 /// KIR3DS1 (11738374_at) / Fold change /veh KIR2DL2 /// KIR2DL4 /// KIR2DL5A /// KIR2DL5B /// KIR2DS1 /// KIR2DS2 /// KIR2DS3 /// KIR2DS4 /// KIR3DL3 /// KIR3DL3 /// KIR3DS1 (11738374_at) / RFU C1QL1 (11718748_at) / Fold change /veh C1QL1 (11718748_at) / RFU TMPRSS4 (11747572_a_at) / Fold change /veh TMPRSS4 (11747572_a_at) / RFU HAMP (11756126_x_at) / Fold change /veh HAMP (11756126_x_at) / RFU RNFT2 (11725882_a_at) / Fold change /veh RNFT2 (11725882_a_at) / RFU NR4A2 (11747474_a_at) / Fold change /veh NR4A2 (11747474_a_at) / RFU ABCC12 (11746883_a_at) / Fold change /veh ABCC12 (11746883_a_at) / RFU TMEM136 (11760407_x_at) / Fold change /veh TMEM136 (11760407_x_at) / RFU CLDN22 /// WWC2 (11732394_at) / Fold change /veh CLDN22 /// WWC2 (11732394_at) / RFU HLA-DPB1 (11760878_x_at) / Fold change /veh HLA-DPB1 (11760878_x_at) / RFU SPINT1 (11716480_a_at) / Fold change /veh SPINT1 (11716480_a_at) / RFU GAP43 (11754022_s_at) / Fold change /veh GAP43 (11754022_s_at) / RFU A4GNT (11735810_at) / Fold change /veh A4GNT (11735810_at) / RFU PRB3 (11715151_x_at) / Fold change /veh PRB3 (11715151_x_at) / RFU TUBB4B (11761932_at) / Fold change /veh TUBB4B (11761932_at) / RFU CAPN14 (11732068_a_at) / Fold change /veh CAPN14 (11732068_a_at) / RFU TMCC2 (11721928_a_at) / Fold change /veh TMCC2 (11721928_a_at) / RFU IRGQ (11745062_a_at) / Fold change /veh IRGQ (11745062_a_at) / RFU FAM174B (11720279_a_at) / Fold change /veh FAM174B (11720279_a_at) / RFU TMPRSS4 (11748680_a_at) / Fold change /veh TMPRSS4 (11748680_a_at) / RFU FAM212B (11763350_a_at) / Fold change /veh FAM212B (11763350_a_at) / RFU PLEKHG5 (11743358_a_at) / Fold change /veh PLEKHG5 (11743358_a_at) / RFU ZSCAN30 (11745921_a_at) / Fold change /veh ZSCAN30 (11745921_a_at) / RFU CMKLR1 (11741424_a_at) / Fold change /veh CMKLR1 (11741424_a_at) / RFU LOC101060620 /// MAPK8IP1 (11723275_at) / Fold change /veh LOC101060620 /// MAPK8IP1 (11723275_at) / RFU SPTSSB (11747773_x_at) / Fold change /veh SPTSSB (11747773_x_at) / RFU PRSS12 (11739890_at) / Fold change /veh PRSS12 (11739890_at) / RFU BIN1 (11741810_x_at) / Fold change /veh BIN1 (11741810_x_at) / RFU WNT11 (11732464_a_at) / Fold change /veh WNT11 (11732464_a_at) / RFU C10orf10 (11716521_a_at) / Fold change /veh C10orf10 (11716521_a_at) / RFU C5orf56 (11738089_at) / Fold change /veh C5orf56 (11738089_at) / RFU CYB561 (11721691_x_at) / Fold change /veh CYB561 (11721691_x_at) / RFU ANKRD19P (11752326_a_at) / Fold change /veh ANKRD19P (11752326_a_at) / RFU OR2T12 /// OR2T33 /// OR2T8 (11738714_s_at) / Fold change /veh OR2T12 /// OR2T33 /// OR2T8 (11738714_s_at) / RFU VCAN (11748164_a_at) / Fold change /veh VCAN (11748164_a_at) / RFU JSRP1 (11732532_at) / Fold change /veh JSRP1 (11732532_at) / RFU KRTAP10-11 (11738290_x_at) / Fold change /veh KRTAP10-11 (11738290_x_at) / RFU MYO3A (11730013_a_at) / Fold change /veh MYO3A (11730013_a_at) / RFU EBF3 (11725865_a_at) / Fold change /veh EBF3 (11725865_a_at) / RFU CAMK2N1 (11719241_x_at) / Fold change /veh CAMK2N1 (11719241_x_at) / RFU C5orf56 (11738088_a_at) / Fold change /veh C5orf56 (11738088_a_at) / RFU OLFML3 (11715873_a_at) / Fold change /veh OLFML3 (11715873_a_at) / RFU LOC100653217 /// NTM (11731650_a_at) / Fold change /veh LOC100653217 /// NTM (11731650_a_at) / RFU MAPK11 (11762145_a_at) / Fold change /veh MAPK11 (11762145_a_at) / RFU FIZ1 (11724087_x_at) / Fold change /veh FIZ1 (11724087_x_at) / RFU OASL (11726364_x_at) / Fold change /veh OASL (11726364_x_at) / RFU SOX15 (11748057_x_at) / Fold change /veh SOX15 (11748057_x_at) / RFU CD79A (11719716_a_at) / Fold change /veh CD79A (11719716_a_at) / RFU HIST1H1D (11736915_at) / Fold change /veh HIST1H1D (11736915_at) / RFU CASKIN2 (11723855_a_at) / Fold change /veh CASKIN2 (11723855_a_at) / RFU LOC730098 (11760151_x_at) / Fold change /veh LOC730098 (11760151_x_at) / RFU OR4N2 (11742367_at) / Fold change /veh OR4N2 (11742367_at) / RFU PRRT2 (11749266_a_at) / Fold change /veh PRRT2 (11749266_a_at) / RFU SNX32 (11753110_a_at) / Fold change /veh SNX32 (11753110_a_at) / RFU CDHR5 (11726645_a_at) / Fold change /veh CDHR5 (11726645_a_at) / RFU RCAN1 (11760418_a_at) / Fold change /veh RCAN1 (11760418_a_at) / RFU FAM167A (11723789_a_at) / Fold change /veh FAM167A (11723789_a_at) / RFU FAM26E (11764081_at) / Fold change /veh FAM26E (11764081_at) / RFU ISYNA1 (11749810_s_at) / Fold change /veh ISYNA1 (11749810_s_at) / RFU ACY1 (11761880_at) / Fold change /veh ACY1 (11761880_at) / RFU 11764098_at / Fold change /veh 11764098_at / RFU SAMD14 (11745864_x_at) / Fold change /veh SAMD14 (11745864_x_at) / RFU NPB (11741838_a_at) / Fold change /veh NPB (11741838_a_at) / RFU TMPRSS6 (11731388_a_at) / Fold change /veh TMPRSS6 (11731388_a_at) / RFU KRTAP10-2 (11738614_at) / Fold change /veh KRTAP10-2 (11738614_at) / RFU ARHGAP8 /// PRR5-ARHGAP8 (11727945_x_at) / Fold change /veh ARHGAP8 /// PRR5-ARHGAP8 (11727945_x_at) / RFU KRTAP5-7 /// NADSYN1 (11734609_at) / Fold change /veh KRTAP5-7 /// NADSYN1 (11734609_at) / RFU RASL12 (11751679_a_at) / Fold change /veh RASL12 (11751679_a_at) / RFU CDKN2B (11736163_a_at) / Fold change /veh CDKN2B (11736163_a_at) / RFU PRF1 (11729649_at) / Fold change /veh PRF1 (11729649_at) / RFU, ZNF638 /// ZNF638-IT1 / Fold change vs veh, ZNF638 /// ZNF638-IT1 / RFU, PANK3 / Fold change vs veh, PANK3 / RFU, SH3YL1 / Fold change vs veh, SH3YL1 / RFU, ZEB2 / Fold change vs veh, ZEB2 / RFU, NRIP1 / Fold change vs veh, NRIP1 / RFU, PTTG1IP / Fold change vs veh, PTTG1IP / RFU, CAPN2 / Fold change vs veh, CAPN2 / RFU, MED14 / Fold change vs veh, MED14 / RFU, SNORA58 / Fold change vs veh, SNORA58 / RFU, C1orf63 / Fold change vs veh, C1orf63 / RFU, LRRFIP1 / Fold change vs veh, LRRFIP1 / RFU, NDUFAF7 / Fold change vs veh, NDUFAF7 / RFU, SLC12A2 / Fold change vs veh, SLC12A2 / RFU, IBTK / Fold change vs veh, IBTK / RFU, ESF1 / Fold change vs veh, ESF1 / Fold change vs veh, TMEM50B / RFU, TAOK1 / Fold change vs veh, TAOK1 / RFU, ACBD3 / Fold change vs veh, ACBD3 / RFU, TMA16 / Fold change vs veh, TMA16 / RFU, RWDD3 / Fold change vs veh, RWDD3 / RFU, BCAT1 / Fold change vs veh, BCAT1 / RFU, EDEM3 / Fold change vs veh, EDEM3 / RFU, TMEM33 / Fold change vs veh, TMEM33 / RFU, WDR75 / Fold change vs veh, WDR75 / RFU, AHCTF1 / Fold change vs veh, AHCTF1 / RFU, TFRC / Fold change vs veh, TFRC / RFU, ZDHHC17 / Fold change vs veh, ZDHHC17 / RFU, NOM1 / Fold change vs veh, NOM1 / RFU, ARL8B / Fold change vs veh, ARL8B / RFU, ZBTB11 / Fold change vs veh, ZBTB11 / RFU, TAMM41 / Fold change vs veh, TAMM41 / RFU, KIAA1704 /// LOC100996395 / Fold change vs veh, KIAA1704 /// LOC100996395 / RFU, ING1 / Fold change vs veh, ING1 / RFU, TRMT61B / Fold change vs veh, TRMT61B / RFU, FUBP3 / Fold change vs veh, FUBP3 / RFU, TP53 / Fold change vs veh, TP53 / RFU, TNKS2 / Fold change vs veh, TNKS2 / RFU, ZFP14 / Fold change vs veh, ZFP14 / RFU, ACTR2 / Fold change vs veh, ACTR2 / RFU, PPP3R1 / Fold change vs veh, PPP3R1 / RFU, PIK3R1 / Fold change vs veh, PIK3R1 / RFU, HNRNPA1 / Fold change vs veh, HNRNPA1 / RFU, RNF170 / Fold change vs veh, RNF170 / RFU, ZNF28 / Fold change vs veh, ZNF28 / RFU, RNGTT / Fold change vs veh, RNGTT / RFU, OGT / Fold change vs veh, OGT / RFU, BRD1 / Fold change vs veh, BRD1 / RFU, MARS / Fold change vs veh, MARS / RFU, ZNF655 / Fold change vs veh, ZNF655 / RFU, FAHD1 / Fold change vs veh, FAHD1 / RFU, BDP1 / Fold change vs veh, BDP1 / RFU, LRRCC1 / Fold change vs veh, LRRCC1 / RFU, ARID1A / Fold change vs veh, ARID1A / RFU, ZNF146 / Fold change vs veh, ZNF146 / RFU, ZNF330 / Fold change vs veh, ZNF330 / RFU, GPN3 / Fold change vs veh, GPN3 / RFU, C9orf123 / Fold change vs veh, C9orf123 / RFU, N4BP2L2 / Fold change vs veh, N4BP2L2 / RFU, ARFIP1 / Fold change vs veh, ARFIP1 / RFU, FAM179B / Fold change vs veh, FAM179B / RFU, BCL10 / Fold change vs veh, BCL10 / RFU, UHRF1BP1L / Fold change vs veh, UHRF1BP1L / RFU, BET1 / Fold change vs veh, BET1 / RFU, CNOT2 / Fold change vs veh, CNOT2 / RFU, ZNF268 / Fold change vs veh, ZNF268 / Fold change vs veh, ZNF507 / RFU, DGCR2 / Fold change vs veh, DGCR2 / RFU, WDSUB1 / Fold change vs veh, WDSUB1 / Fold change vs veh, HSP90B1 /// MIR3652 / RFU, ADSS / Fold change vs veh, ADSS / RFU, GK / Fold change vs veh, GK / RFU, ZNF148 / Fold change vs veh, ZNF148 / RFU, TAF9 / Fold change vs veh, TAF9 / RFU, SLC1A5 / Fold change vs veh, SLC1A5 / RFU, SLMO2 / Fold change vs veh, SLMO2 / RFU, ABCC4 / Fold change vs veh, ABCC4 / RFU, LOC101060439 /// RAP1B / Fold change vs veh, LOC101060439 /// RAP1B / RFU, RFX7 / Fold change vs veh, RFX7 / RFU, GTPBP10 / Fold change vs veh, GTPBP10 / RFU, CNEP1R1 / Fold change vs veh, CNEP1R1 / RFU, BIVM-ERCC5 /// ERCC5 / Fold change vs veh, BIVM-ERCC5 /// ERCC5 / RFU, ILF3 / Fold change vs veh, ILF3 / RFU 11762660_at / Fold change /veh 11762660_at / RFU VCAN (11757783_s_at) / Fold change /veh VCAN (11757783_s_at) / RFU DDX43 (11728927_at) / Fold change /veh DDX43 (11728927_at) / RFU KRT8 (11758188_x_at) / Fold change /veh KRT8 (11758188_x_at) / RFU NKD1 (11759106_at) / Fold change /veh NKD1 (11759106_at) / RFU SRD5A1 (11742802_a_at) / Fold change /veh SRD5A1 (11742802_a_at) / RFU TPSAB1 /// TPSB2 (11721975_s_at) / Fold change /veh TPSAB1 /// TPSB2 (11721975_s_at) / RFU GSTM3 (11746129_a_at) / Fold change /veh GSTM3 (11746129_a_at) / RFU IL23R (11737362_x_at) / Fold change /veh IL23R (11737362_x_at) / RFU TMEM51 (11727254_a_at) / Fold change /veh TMEM51 (11727254_a_at) / RFU PIWIL2 (11732686_x_at) / Fold change /veh PIWIL2 (11732686_x_at) / RFU ORM1 (11744905_x_at) / Fold change /veh ORM1 (11744905_x_at) / RFU CCDC152 (11743942_at) / Fold change /veh CCDC152 (11743942_at) / RFU ECM1 (11717891_a_at) / Fold change /veh ECM1 (11717891_a_at) / RFU IL23R (11748794_a_at) / Fold change /veh IL23R (11748794_a_at) / RFU TNFAIP8L3 (11732012_x_at) / Fold change /veh TNFAIP8L3 (11732012_x_at) / RFU MBOAT4 (11741988_at) / Fold change /veh MBOAT4 (11741988_at) / RFU 11764193_at / Fold change /veh 11764193_at / RFU TMEM53 (11763286_at) / Fold change /veh TMEM53 (11763286_at) / RFU MAGEB2 (11727129_at) / Fold change /veh MAGEB2 (11727129_at) / RFU TMEM200A (11744735_a_at) / Fold change /veh TMEM200A (11744735_a_at) / RFU CCDC152 (11751479_a_at) / Fold change /veh CCDC152 (11751479_a_at) / RFU FAM211A (11726209_a_at) / Fold change /veh FAM211A (11726209_a_at) / RFU RGS16 (11746705_a_at) / Fold change /veh RGS16 (11746705_a_at) / RFU VCAN (11755009_s_at) / Fold change /veh VCAN (11755009_s_at) / RFU RHOB (11743442_s_at) / Fold change /veh RHOB (11743442_s_at) / RFU RGS16 (11720943_a_at) / Fold change /veh RGS16 (11720943_a_at) / RFU RGS16 (11720944_at) / Fold change /veh RGS16 (11720944_at) / RFU, VPS4B / Fold change vs veh, VPS4B / RFU, CREB1 / Fold change vs veh, CREB1 / RFU, DNAJC13 / Fold change vs veh, DNAJC13 / RFU, GNAQ / Fold change vs veh, GNAQ / RFU, CDK5R1 / Fold change vs veh, CDK5R1 / RFU, ZRANB3 / Fold change vs veh, ZRANB3 / RFU, CUL4A / Fold change vs veh, CUL4A / RFU, CCNY / Fold change vs veh, CCNY / RFU, UFL1 / Fold change vs veh, UFL1 / RFU, COG3 / Fold change vs veh, COG3 / RFU, DIAPH2 / Fold change vs veh, DIAPH2 / RFU, SKA2 / Fold change vs veh, SKA2 / RFU, AFF3 / Fold change vs veh, AFF3 / RFU, LMF1 / Fold change vs veh, LMF1 / RFU, IPO11 / Fold change vs veh, IPO11 / RFU, DFFB / Fold change vs veh, DFFB / RFU, FOXP1 / Fold change vs veh, FOXP1 / RFU, CARD8 / Fold change vs veh, CARD8 / RFU, STRN3 / Fold change vs veh, STRN3 / RFU, ADK / Fold change vs veh, ADK / RFU, RASSF2 / Fold change vs veh, RASSF2 / RFU, WIPF1 / Fold change vs veh, WIPF1 / RFU, LARP1B / Fold change vs veh, LARP1B / RFU, RASA1 / Fold change vs veh, RASA1 / RFU, RB1 / Fold change vs veh, RB1 / RFU, PPFIA1 / Fold change vs veh, PPFIA1 / RFU, MAT2A / Fold change vs veh, MAT2A / RFU, CCT5 / Fold change vs veh, CCT5 / RFU, WDR92 / Fold change vs veh, WDR92 / RFU, CUX1 / Fold change vs veh, CUX1 / RFU, TTC7A / Fold change vs veh, TTC7A / RFU, TMEM135 / Fold change vs veh, TMEM135 / RFU, DEPTOR / Fold change vs veh, DEPTOR / RFU, CPM / Fold change vs veh, CPM / RFU, DNAJB6 / Fold change vs veh, DNAJB6 / RFU, CACNA2D3 / Fold change vs veh, CACNA2D3 / RFU, DTX4 / Fold change vs veh, DTX4 / RFU, TFCP2 / Fold change vs veh, TFCP2 / RFU, GMCL1 /// GMCL1P1 / Fold change vs veh, GMCL1 /// GMCL1P1 / RFU, AEBP2 / Fold change vs veh, AEBP2 / RFU, SNHG1 /// SNORD22 /// SNORD25 /// SNORD26 /// SNORD27 /// SNORD28 /// SNORD29 /// SNORD31 / Fold change vs veh, SNHG1 /// SNORD22 /// SNORD25 /// SNORD26 /// SNORD27 /// SNORD28 /// SNORD29 /// SNORD31 / Fold change (Aza/veh), C12orf56 (ProbeSet 11735607_a_at) / Fold change (ACY-1035/veh), C12orf56 (ProbeSet 11735607_a_at) / Fold change (Aza/veh), FGFR1OP (ProbeSet 11751329_s_at) / Fold change (ACY-1035/veh), FGFR1OP (ProbeSet 11751329_s_at) / Fold change (Aza/veh), VPS36 (ProbeSet 11739960_a_at) / Fold change (ACY-1035/veh), VPS36 (ProbeSet 11739960_a_at) / RFU SYPL1 (11715823_x_at) / Fold change /veh SYPL1 (11715823_x_at) / RFU IGFBP7 (11715501_s_at) / Fold change /veh IGFBP7 (11715501_s_at) / RFU REEP3 (11722064_at) / Fold change /veh REEP3 (11722064_at) / RFU IGLL1 (11728026_x_at) / Fold change /veh IGLL1 (11728026_x_at): dose or concentration left out as unconfirmed. Particulars: ProbeSet 11749645_x_at; LIST B.

Structures are written as SMILES.

With `Nc1ccc(-c2cccs2)cc1NC(=O)c1ccc2c(c1)cc(C1CC1)n2CCN1CCOCC1` [ACY-1035], the “RFU, ZNF268” value stood at 141.54 RFU.
